Source: patent US8653100B2 (AbbVie Inc., priority 2008, dated 2014)
Where a name gives a salt, the structure may show the parent alone.

Biological target: human GlyT1c transporter (Homo sapiens (Human), UniProt P48067)
Test: Radioligand binding assay using recombinant CHO cell membranes expressing human GlyT1
Details: examples 88-204, radioligand not specified by footnote, read-out: radioligand binding Kiapp
Protocol: 2. Radioligand binding assays using recombinant CHO cell membranes expressing human GlyT1:
Radioligand binding to human GlyT1c transporter-expressing membranes was carried out as described in Mezler et al., Molecular Pharmacology 74:1705-1715, 2008.
More specifically, [^3H]-(R)-NPTS radioligand binding to human GlyT1c transporter-expressing membranes was measured in duplicate in a total volume of 200 μl in 96-well plates. To 100 μl of membrane suspension (yielding a final membrane protein concentration of 50 μg/ml) in assay buffer (120 mM NaCl, 2 mM KCl, 10 mM Hepes, 1 mM MgCl2, 1 mM CaCl2, pH 7.5) […] of [^3H]-(R)-NPTS (0.5 nM final) were added in assay buffer. For competition experiments 10 μl of buffer or unlabeled compound solution obtained from dilution series of test compounds in DMSO followed. An intermediate 1:10 dilution in assay buffer yielded a final DMSO concentration of 1%. Non-specific binding was determined in the presence of 10 μM Org24598 (or its racemate Org24461) for [^3H]-(R)-NPTS. After incubation at room temperature for 1 h, the incubation mixture was harvested (Tomtec Mach III U Harvester) through 96-well GF/B filter plates (PerkinElmer), presoaked for 1 h with 40 μl per well of 0.1% polyethylene-imine (PEI). After washing twice with ice-cold 50 mM Tris-HCl pH 7.4 buffer, drying and addition of 35 μl scintillator (BetaplateScint, PerkinElmer) per well followed. The radioactivity was determined by liquid scintillation spectrometry in a MicroBeta (PerkinElmer) plate counter.
Data analysis: For binding of [^3H]-(R)-NPTS to cell membranes, the calculation of Kd and Bmax values from the saturation binding assays and the IC50 values from the displacement binding was performed by iterative non-linear regression analysis adapted from the ‘Ligand’ program (Munson and Rodbard, 1980). Radioligand displacement curves in absence or in presence of increasing concentrations of tested compounds were fitted using a one-site fit and the apparent Ki values were calculated from the IC50 values using the Cheng-Prusoff equation (Cheng and Prusoff 1973).

human GlyT1c transporter, sequence (P48067 whole entry): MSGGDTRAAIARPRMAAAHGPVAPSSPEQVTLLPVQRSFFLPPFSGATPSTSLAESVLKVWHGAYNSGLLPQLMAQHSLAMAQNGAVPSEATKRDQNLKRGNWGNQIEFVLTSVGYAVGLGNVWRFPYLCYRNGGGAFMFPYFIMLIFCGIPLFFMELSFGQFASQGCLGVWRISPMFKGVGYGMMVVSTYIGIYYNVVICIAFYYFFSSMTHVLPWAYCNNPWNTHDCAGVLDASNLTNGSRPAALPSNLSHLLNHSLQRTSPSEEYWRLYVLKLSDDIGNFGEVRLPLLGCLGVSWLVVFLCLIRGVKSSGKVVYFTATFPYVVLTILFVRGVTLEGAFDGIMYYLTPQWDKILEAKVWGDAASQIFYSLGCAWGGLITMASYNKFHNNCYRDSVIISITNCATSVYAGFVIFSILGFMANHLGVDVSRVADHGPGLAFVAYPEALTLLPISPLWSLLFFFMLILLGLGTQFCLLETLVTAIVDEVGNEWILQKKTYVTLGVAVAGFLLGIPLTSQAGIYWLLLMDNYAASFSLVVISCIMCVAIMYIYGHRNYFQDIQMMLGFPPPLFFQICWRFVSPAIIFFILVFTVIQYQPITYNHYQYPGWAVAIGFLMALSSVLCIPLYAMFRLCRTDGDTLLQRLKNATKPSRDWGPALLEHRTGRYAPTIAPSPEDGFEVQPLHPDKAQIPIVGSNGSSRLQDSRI

Compound	Ki [nM]
O=S(=O)(NCCOc1ccc2c(c1)C(C1(c3ccc(Cl)cc3)CCC1)NCC2)C1CCCNC1 (single isomer, unassigned) [Example 193, N-[2-({1-[1-(4-Chlorophenyl)cyclobutyl]-1,2,3,4-tetrahydroisoquinolin-7-yl}oxy)ethyl]piperidine-3-sulfonamide dihydrochloride]	≤ 10000
O=S(=O)(NCCOc1ccc2c(c1)C(C1(c3ccc(Cl)cc3)CCC1)NCC2)C1CCCNC1 (single isomer, unassigned) [Example 164, N-[2-({1-[1-(4-Chlorophenyl)cyclobutyl]-1,2,3,4-tetrahydroisoquinolin-7-yl}oxy)ethyl]piperidine-3-sulfonamide dihydrochloride]	≤ 1000
O=S(=O)(CC1CC1)NCc1ccc2c(c1)C(C1(c3ccccn3)CCC1)NCC2 (centres unmarked) [Example 134, 1-Cyclopropyl-N-({1-[1-(pyridin-2-yl)cyclobutyl]-1,2,3,4-tetrahydroisoquinolin-7-yl}methyl)methanesulfonamide trifluoroacetate]	≤ 10000
CCCS(=O)(=O)NCCOc1ccc2c(c1)C(C1(c3cccc(Cl)n3)CCC1)NCC2 (centres unmarked) [Example 105, N-[2-({1-[1-(6-Chloropyridin-2-yl)cyclobutyl]-1,2,3,4-tetrahydroisoquinolin-7-yl}oxy)ethyl]propane-1-sulfonamide dihydrochloride]	≤ 100
O=S(=O)(CCCF)NCCOc1ccc2c(c1)C(C1(c3ccccn3)CCC1)NCC2 (centres unmarked) [Example 104, 3-Fluoro-N-[2-({1-[1-(pyridin-2-yl)cyclobutyl]-1,2,3,4-tetrahydroisoquinolin-7-yl}oxy)ethyl]propane-1-sulfonamide hydrochloride]	≤ 100
O=S(=O)(NCCOc1ccc2c(c1)C(C1(c3ccc(Cl)cc3)CCC1)NCC2)C1CCN(Cc2ccccc2)CC1 (centres unmarked) [Example 177, 1-Benzyl-N-[2-({1-[1-(4-chlorophenyl)cyclobutyl]-1,2,3,4-tetrahydroisoquinolin-7-yl}oxy)ethyl]piperidine-4-sulfonamide hydrochloride]	≤ 10000
O=C(OCc1ccccc1)N1CCC(S(=O)(=O)NCCOc2ccc3c(c2)C(C2(c4ccc(Cl)cc4)CCC2)NCC3)C1 (centres unmarked) [Example 170, Benzyl 3-{[2-({1-[1-(4-chlorophenyl)cyclobutyl]-1,2,3,4-tetrahydroisoquinolin-7-yl}oxy)ethyl]sulfamoyl}pyrrolidine-1-carboxylate]	≤ 1000
Cn1cc(S(=O)(=O)NCc2ccc3c(c2)C(C(C)(C)c2ccc(Cl)cc2)NCC3)cn1 (centres unmarked) [Example 100, N-({1-[2-(4-Chlorophenyl)propan-2-yl]-1,2,3,4-tetrahydroisoquinolin-7-yl}methyl)-1-methyl-1H-pyrazole-4-sulfonamide hydrochloride]	≤ 100
Cn1cc(S(=O)(=O)NCCOc2ccc3c(c2)C(C2(c4ccc(Cl)cc4)CC(F)(F)C2)NCC3)cn1 (single isomer, unassigned) [Example 168, N-[2-({1-[1-(4-Chlorophenyl)-3,3-difluorocyclobutyl]-1,2,3,4-tetrahydroisoquinolin-7-yl}oxy)ethyl]-1-methyl-1H-pyrazole-4-sulfonamide]	≤ 1000
O=S(=O)(CCN1CCCCC1)NCCOc1ccc2c(c1)C(C1(c3ccc(Cl)cc3)CCC1)NCC2 (centres unmarked) [Example 161, N-[2-({1-[1-(4-Chlorophenyl)cyclobutyl]-1,2,3,4-tetrahydroisoquinolin-7-yl}oxy)ethyl]-2-(piperidin-1-yl)ethanesulfonamide (2E)-but-2-enedioate]	≤ 1000
O=S(=O)(CCCOc1ccc2c(c1)C(C1(c3ccc(Cl)cc3)CCC1)NCC2)Nc1ccccn1 (centres unmarked) [Example 109, 3-({1-[1-(4-Chlorophenyl)cyclobutyl]-1,2,3,4-tetrahydroisoquinolin-7-yl}oxy)-N-(pyridin-2-yl)propane-1-sulfonamide dihydrochloride]	≤ 1000
O=S(=O)(Nc1ccc(Oc2ccc3c(c2)C(C2(c4ccc(Cl)cc4)CCC2)NCC3)nc1)c1cccs1 (centres unmarked) [Example 124, N-[6-({1-[1-(4-Chlorophenyl)cyclobutyl]-1,2,3,4-tetrahydroisoquinolin-7-yl}oxy)pyridin-3-yl]thiophene-2-sulfonamide dihydrochloride]	≤ 10000
O=S(=O)(CCC(F)(F)F)NCCOc1ccc2c(c1)C(C1(c3ccc(Cl)cc3)CCC1)NCC2 (centres unmarked) [Example 144, N-[2-({1-[1-(4-Chlorophenyl)cyclobutyl]-1,2,3,4-tetrahydroisoquinolin-7-yl}oxy)ethyl]-3,3,3-trifluoropropane-1-sulfonamide hydrochloride]	≤ 100
O=S(=O)(Nc1ccc(Oc2ccc3c(c2)C(C2(c4ccc(Cl)cc4)CCC2)NCC3)nc1)c1cccnc1 (centres unmarked) [Example 131, N-[6-({1-[1-(4-Chlorophenyl)cyclobutyl]-1,2,3,4-tetrahydroisoquinolin-7-yl}oxy)pyridin-3-yl]pyridine-3-sulfonamide trihydrochloride]	≤ 10000
O=S(=O)(NCCOc1ccc2c(c1)C(C1(c3ccc(Cl)cc3)CCC1)NCC2)C1CCNC1 (centres unmarked) [Example 159, N-[2-({1-[1-(4-Chlorophenyl)cyclobutyl]-1,2,3,4-tetrahydroisoquinolin-7-yl}oxy)ethyl]pyrrolidine-3-sulfonamide dihydrochloride]	≤ 100
O=S(=O)(CCCF)NCc1ccc2c(c1)C(C1(c3ccc(Cl)cc3)CCC1)NCC2 (centres unmarked) [Example 94, N-({1-[1-(4-Chlorophenyl)cyclobutyl]-1,2,3,4-tetrahydroisoquinolin-7-yl}methyl)-3-fluoropropane-1-sulfonamide hydrochloride]	≤ 100
CC(C)(c1ccc(Cl)cc1)C1NCCc2ccc(C#N)cc21 (centres unmarked) [Example 107, 1-[2-(4-Chlorophenyl)propan-2-yl]-1,2,3,4-tetrahydroisoquinoline-7-carbonitrile hydrochloride]	≤ 1000

Continued, values first:

Ki [nM]	Compound
≤ 10000	CN1CCOc2cc(S(=O)(=O)NCCOc3ccc4c(c3)C(C3(c5ccc(Cl)cc5)CCC3)NCC4)cnc21 (centres unmarked) [Example 185, N-[2-({1-[1-(4-Chlorophenyl)cyclobutyl]-1,2,3,4-tetrahydroisoquinolin-7-yl}oxy)ethyl]-4-methyl-3,4-dihydro-2H-pyrido[3,2-b][1,4]oxazine-7-sulfonamide hydrochloride]
≤ 10000	NCCCCS(=O)(=O)NCCOc1ccc2c(c1)C(C1(c3ccc(Cl)cc3)CCC1)NCC2 (centres unmarked) [Example 184, 4-Amino-N-[2-({1-[1-(4-chlorophenyl)cyclobutyl]-1,2,3,4-tetrahydroisoquinolin-7-yl}oxy)ethyl]butane-1-sulfonamide (2E)-but-2-enedioate]
≤ 100	C/C=C/S(=O)(=O)NCCOc1ccc2c(c1)C(C1(c3ccc(Cl)cc3)CCC1)NCC2 (centres unmarked) [Example 88, (1E)-N-[2-({1-[1-(4-Chlorophenyl)cyclobutyl]-1,2,3,4-tetrahydroisoquinolin-7-yl}oxy)ethyl]prop-1-ene-1-sulfonamide hydrochloride]
≤ 100000	Nc1n[nH]c(S(=O)(=O)NCCOc2ccc3c(c2)C(C2(c4ccc(Cl)cc4)CCC2)NCC3)n1 (centres unmarked) [Example 203, 3-Amino-N-[2-({1-[1-(4-chlorophenyl)cyclobutyl]-1,2,3,4-tetrahydroisoquinolin-7-yl}oxy)ethyl]-1H-1,2,4-triazole-5-sulfonamide dihydrochloride]
≤ 10000	NCCCNS(=O)(=O)CCCOc1ccc2c(c1)C(C1(c3ccc(Cl)cc3)CCC1)NCC2 (centres unmarked) [Example 137, N-(3-Aminopropyl)-3-({1-[1-(4-chlorophenyl)cyclobutyl]-1,2,3,4-tetrahydroisoquinolin-7-yl}oxy)propane-1-sulfonamide dihydrochloride]
≤ 100	COc1ccc(S(=O)(=O)NCCOc2ccc3c(c2)C(C2(c4ccc(Cl)cc4)CCC2)NCC3)cn1 (centres unmarked) [Example 156, N-[2-({1-[1-(4-Chlorophenyl)cyclobutyl]-1,2,3,4-tetrahydroisoquinolin-7-yl}oxy)ethyl]-6-methoxypyridine-3-sulfonamide hydrochloride]
≤ 1000	CNc1nnc(S(=O)(=O)NCCOc2ccc3c(c2)C(C2(c4ccc(Cl)cc4)CCC2)NCC3)s1 (centres unmarked) [Example 162, N-[2-({1-[1-(4-Chlorophenyl)cyclobutyl]-1,2,3,4-tetrahydroisoquinolin-7-yl}oxy)ethyl]-5-(methylamino)-1,3,4-thiadiazole-2-sulfonamide hydrochloride]
≤ 10000	O=S(=O)(NCCOc1ccc2c(c1)C(C1(c3ccc(Cl)cc3)CCC1)NCC2)c1ccc(Oc2ccccc2)nc1 (centres unmarked) [Example 173, N-[2-({1-[1-(4-Chlorophenyl)cyclobutyl]-1,2,3,4-tetrahydroisoquinolin-7-yl}oxy)ethyl]-6-phenoxypyridine-3-sulfonamide hydrochloride]
≤ 100	Nc1ncc(S(=O)(=O)NCCOc2ccc3c(c2)C(C2(c4ccc(Cl)cc4)CCC2)NCC3)cn1 (centres unmarked) [Example 150, 2-Amino-N-[2-({1-[1-(4-chlorophenyl)cyclobutyl]-1,2,3,4-tetrahydroisoquinolin-7-yl}oxy)ethyl]pyrimidine-5-sulfonamide]
